One assay has as its target Coagulation factor X (Homo sapiens, UniProt P00742). Briefly: Compound was evaluated for inhibition of amidolytic activity for chromogenic substrate Coagulation factor X.
The next assay deals with T1, Trypsin II (Bos taurus, UniProt Q29463).
T1 sequence (Q29463 whole entry): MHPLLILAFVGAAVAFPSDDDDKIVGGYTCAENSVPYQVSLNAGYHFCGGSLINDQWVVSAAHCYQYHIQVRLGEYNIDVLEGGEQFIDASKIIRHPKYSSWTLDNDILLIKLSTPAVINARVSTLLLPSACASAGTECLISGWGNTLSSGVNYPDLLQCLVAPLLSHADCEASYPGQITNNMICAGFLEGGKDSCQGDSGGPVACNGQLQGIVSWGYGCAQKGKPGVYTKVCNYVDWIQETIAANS
Briefly: Compound was evaluated for inhibition of amidolytic activity for chromogenic substrate trypsin.

The next assay deals with Prothrombin (Homo sapiens, UniProt P00734). Briefly: Compound was evaluated for inhibition of amidolytic activity for chromogenic substrate thrombin […].

A value given as a limit tells only on which side of the number the result lay.

Coagulation factor X, sequence (P00742 41-179 limits assumed): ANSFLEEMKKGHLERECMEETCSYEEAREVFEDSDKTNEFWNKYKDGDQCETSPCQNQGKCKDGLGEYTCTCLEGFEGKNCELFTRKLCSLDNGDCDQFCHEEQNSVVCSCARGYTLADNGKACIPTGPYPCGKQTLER
Coagulation factor X, sequence (P00742 235-488 limits assumed): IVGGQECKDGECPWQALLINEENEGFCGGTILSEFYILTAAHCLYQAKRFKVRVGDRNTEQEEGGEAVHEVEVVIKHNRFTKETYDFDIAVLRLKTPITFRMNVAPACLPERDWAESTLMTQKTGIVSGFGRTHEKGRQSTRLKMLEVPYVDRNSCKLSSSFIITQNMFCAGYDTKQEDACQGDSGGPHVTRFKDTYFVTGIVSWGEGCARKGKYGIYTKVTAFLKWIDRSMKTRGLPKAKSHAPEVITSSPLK

A word on the IC50: it is the midpoint of a concentration-inhibition curve. Lower therefore signals higher potency. Regarding `N=C(N)N1CCCC(C[C@@H](C=O)NC(=O)CN2CCCC[C@H](NS(=O)(=O)Cc3ccccc3)C2=O)C1` (stereo in doubt; 6a), the IC50 at Coagulation factor X was > 2500 nM; against Trypsin II, 15100 nM.
As to `N=C(N)NCCC[C@@H](C=O)NC(=O)CN1CCC[C@H](NS(=O)(=O)Cc2ccccc2)C1=O`, the IC50 against Coagulation factor X was > 2500 nM; at Prothrombin it was 12.4 nM; on Trypsin II it was 1550 nM.
Regarding `CCCC(CCC)C(=O)N[C@@H](CC(=O)OC)C(=O)N1CCC[C@H]1C(=O)N[C@H](C=O)CC1CCCN(C(=N)N)C1` (stereo in doubt; 4a), the IC50 against Coagulation factor X is > 2500 nM; against Trypsin II, 113 nM.
`N=C(N)N1CCC[C@H](C[C@@H](C=O)NC(=O)CN2CCC[C@H](NS(=O)(=O)Cc3ccccc3)C2=O)C1`: the IC50 is > 25000 nM against Coagulation factor X, 28.8 nM on Prothrombin and 60700 nM on Trypsin II.
Regarding `CCCC(CCC)C(=O)N[C@@H](CC(=O)OC)C(=O)N1CCC[C@H]1C(=O)N[C@H](C=O)CCCNC(=N)N`, the IC50 turned out to be 301 nM against Coagulation factor X and 1.2 nM on Trypsin II.
On to `N=C(N)N1CCCC(C[C@@H](C=O)NC(=O)CN2CCCC[C@H](NS(=O)(=O)Cc3ccccc3)C2=O)C1` (stereo in doubt; 6b), for which the IC50 is > 25000 nM against Coagulation factor X and 45800 nM at Trypsin II.
As to `[H]/N=C(\N)N1CCC[C@@H](C[C@@H](C=O)NC(=O)CN2CCC[C@H](NS(=O)(=O)Cc3ccccc3)C2=O)C1`, the IC50 on Coagulation factor X is > 25000 nM; on Prothrombin, 0.67 nM; on Trypsin II, 68400 nM.
Regarding `CCCC(CCC)C(=O)N[C@@H](CC(=O)OC)C(=O)N1CCC[C@H]1C(=O)N[C@H](C=O)CC1CCCN(C(=N)N)C1` (stereo in doubt; 4b), the IC50 at Coagulation factor X is > 2500 nM; at Trypsin II, 69.7 nM.
For `N=C(N)NCCC[C@@H](C=O)NC(=O)CN1CCCC[C@H](NS(=O)(=O)Cc2ccccc2)C1=O`, the IC50 against Coagulation factor X amounted to 20.6 nM; at Prothrombin, 0.71 nM; against Trypsin II it was 329 nM.

The values above are taken from ChEMBL document CHEMBL1129391, “Potent and selective thrombin inhibitors incorporating the constrained arginine mimic l-3-piperidyl(N-guanidino)alanine at P1” (J Med Chem, 1996).
